Test results reported in paper PMC6278366, “Synthesis and Evaluation of Anticancer Activities of Novel C-28 Guanidine-Functionalized Triterpene Acid Derivatives” (Molecules, 2018).
Where a name gives a salt, the structure may show the parent alone.

How the values were obtained:
[1] = system: K562 (chronic myeloid leukemia) cells; experiment: Cytotoxicity assay (7-AAD viability, flow cytometry), K562; type: cell-based, human; settings: Homo sapiens, K562, mean ± SE, at least three experiments in duplicate; viable cells; read-out: IC50 K562
Procedure, shortened: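 Suspension lines in RPMI 1640 with 10% FBS at 37 °C, 5% CO2, treated with compounds at 1, 5, 10, 15, 30 and 60 μM. Live/dead status by 7-AAD staining (15 min, room temperature, dark) read on flow cytometer, 488 nm excitation, 675/30 nm emission.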

Jurkat cells = experiment: Cell cycle analysis (propidium iodide staining, flow cytometry); type: cell-based, human; settings: 48 h, at IC50 concentration (59 μM Dihydro BA; 4 μM 15, 15c, 18c; 8 μM 20c); for cells in G2/M phase: control 14.5%
Protocol: Cell cycle was analyzed using the method of propidium iodide staining. Briefly, cells were plated in 24-well round bottom plates at density 10 × 10^5 cells per well, centrifuged at 450× g for 5 min, and fixed with ice-cold 70% ethanol for 24 h at 0 °C. Cells were then washed with PBS and incubated with 250 μL of Guava Cell Cycle Reagent (Millipore, Burlington, MA, USA) for 30 min at room temperature in the dark. Samples were analyzed on NovoCyte^TM 2000 FlowCytometry System (ACEA, San Diego, CA, USA).
Figure 3 Cell cycle analysis in Jurkat cells. […] The cells were trypsinized, harvested and washed three times with ice-PBS for PI-stained DNA content detected by flow cytometry. The experiments were performed three times, and the results of the representative experiments are shown. The first cytogram represents an untreated cell sample (A); after incubation with dihydrobetulinic acid for 48 h (B); after incubation with compound 15 for 24 h (C) and for 48 h (D); after incubation with compound 15c for 24 h (E) and for 48 h (F); after incubation with compound 18c for 24 h (G) and for 48 h (H); after incubation with compound 20c for 24 h (I) and for 48 h (J). […]

CC(=O)O[C@H]1CC[C@@]2(C)C(CC[C@]3(C)C2CCC2C4C(C(C)C)CC[C@]4(C(=O)OCC(N)(CO)CO)CC[C@]23C)C1(C)C (stereo partly drawn) [Compound 15, 3β-[2-Amino-3-hydroxy-2-(hydroxymethyl)propyl]-3-O-acetyl-lupane-28-oate]
IC50 [1]: 2100 ± 130 nM | cells in G2/M phase (Jurkat cells): 7.0% | cells in S phase (Jurkat cells; control 38.3%): 72.7%

CC(=O)O[C@H]1CC[C@@]2(C)C(CC[C@]3(C)C2CCC2C4C(C(C)C)CC[C@]4(C(=O)OCC(CO)(CO)NC(=N)N)CC[C@]23C)C1(C)C (stereo partly drawn) [Compound 15c, 3β-[2-Guanidine-3-hydroxy-2-(hydroxymethyl)propyl]-3-O-acetyl-lupane-28-oate hydrochloride]
IC50 [1]: 2300 ± 340 nM | cells in G2/M phase (Jurkat cells): 1.5%
